In patent US11897851B2, “Heterocyclic GLP-1 agonists” (Gasherbrum Bio, Inc., priority 2021, dated 2024):

These compounds were tested against T1, GLP-1 Receptor (Homo sapiens, UniProt P43220) (assay: GLP-1R agonist cAMP stimulation assay (HEK293/GLP1R/CRE-LUC cells, Cisbio cAMP dynamic 2 kit)). Settings: HEK293/CRE-Luc cell line stably expressing the GLP-1 Receptor; 1000 cells/well; 30 min at 37° C.; 0.5 mM IBMX, 0.1% BSA; read-out: GLP1R cAMP Stimulation DR: EC50.
T1 construct: host or cells: HEK293/GLP1R/CRE-LUC (HEK293/CRE-Luc stably expressing the GLP-1 receptor)
T1 sequence (P43220 24-463, species assumed): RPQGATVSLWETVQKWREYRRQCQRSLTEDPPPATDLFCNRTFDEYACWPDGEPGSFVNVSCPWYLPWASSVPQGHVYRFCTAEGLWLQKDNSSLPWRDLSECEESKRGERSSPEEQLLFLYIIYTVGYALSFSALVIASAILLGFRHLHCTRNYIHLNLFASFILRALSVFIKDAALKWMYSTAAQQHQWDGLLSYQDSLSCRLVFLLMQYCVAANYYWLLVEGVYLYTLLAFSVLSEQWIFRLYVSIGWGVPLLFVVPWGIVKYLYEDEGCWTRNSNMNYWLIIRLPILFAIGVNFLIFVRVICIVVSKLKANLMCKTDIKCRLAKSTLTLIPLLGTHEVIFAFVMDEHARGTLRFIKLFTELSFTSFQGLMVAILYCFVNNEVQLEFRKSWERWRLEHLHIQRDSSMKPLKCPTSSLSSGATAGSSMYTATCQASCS
Type: cell-based
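Also: compounds tested in half-log serial dilution, cAMP detected with cAMP-d2 and anti-cAMP cryptate antibody reagents after 1 h at room temperature.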

In order of rising EC50:
1. CCn1cncc1Cn1c(/C=C/C(=O)O)cnc1CN1CCC(c2cccc3c2O[C@@](C)(c2ccc(Cl)cc2F)O3)CC1 [Compound 139a, (S,E)-3-(2-((4-(2-(4-chloro-2-fluorophenyl)-2-methylbenzo[d][1,3]dioxol-4-yl)piperidin-1-yl)methyl)-1-((1-ethyl-1H-imidazol-5-yl)methyl)-1H-imidazol-5-yl)acrylic acid]  0.0012 nM
2. CCn1cncc1Cn1c(/C=C/C(=O)O)cnc1CN1CCC(c2cccc3c2OC[C@@H](c2ccc(Cl)cc2)O3)CC1 [Compound 207a, (R,E)-3-(2-((4-(2-(4-chlorophenyl)-2,3-dihydrobenzo [b][1,4]dioxin-5-yl)piperidin-1-yl)methyl)-1-((1-ethyl-1H-imidazol-5-yl)methyl)-1H-imidazol-5-yl)acrylic acid]  0.016 nM
3. C[C@]1(c2ccc(Cl)cc2F)Oc2cccc(C3CCN(Cc4ncc(/C=C/C(=O)O)n4C[C@@H]4CCO4)CC3)c2O1 [Compound 135a, (E)-3-(2-((4-((S)-2-(4-chloro-2-fluorophenyl)-2-methylbenzo[d][1,3]dioxol-4-yl)piperidin-1-yl)methyl)-1-(((S)-oxetan-2-yl)methyl)-1H-imidazol-5-yl)acrylic acid]  0.033 nM
4. CCc1nocc1Cn1c(/C=C/C(=O)O)cnc1CN1CCC(c2cccc3c2OC(C)(c2ccc(Cl)cc2F)O3)CC1 (centres unmarked) [Compound 203, (E)-3-(2-((4-(2-(4-chloro-2-fluorophenyl)-2-methylbenzo[d][1,3]dioxol-4-yl)piperidin-1-yl)methyl)-1-((3-ethylisoxazol-4-yl)methyl)-1H-imidazol-5-yl)acrylic acid]  0.058 nM
5. COCCCn1c(/C=C/C(=O)O)cnc1CN1CCC(c2cccc3c2OC(C)(c2ccc(Cl)cc2F)O3)CC1 (centres unmarked) [Compound 195, (E)-3-(2-((4-(2-(4-chloro-2-fluorophenyl)-2-methylbenzo[d][1,3]dioxol-4-yl)piperidin-1-yl)methyl)-1-(3-methoxypropyl)-1H-imidazol-5-yl)acrylic acid]  0.091 nM
6. CC1(c2ccc(Cl)cc2F)Oc2cccc(C3CCN(Cc4ncc(/C=C/C(=O)O)n4CC4CC(O)C4)CC3)c2O1 (centres unmarked) [Compound 177, (E)-3-(2-((4-(2-(4-chloro-2-fluorophenyl)-2-methylbenzo[d][1,3]dioxol-4-yl)piperidin-1-yl)methyl)-1-((3-hydroxycyclobutyl)methyl)-1H-imidazol-5-yl)acrylic acid]  0.18 nM
7. C/C(=C\c1cnc(CN2CCC(c3cccc4c3O[C@@](C)(c3ccc(Cl)cc3)O4)CC2)n1C[C@@H]1CCO1)C(=O)O [Compound 134a, (E)-3-(2-((4-((S)-2-(4-chlorophenyl)-2-methylbenzo [d][1,3]dioxol-4-yl)piperidin-1-yl)methyl)-1-(((S)-oxetan-2-yl)methyl)-1H-imidazol-5-yl)-2-methylacrylic acid]  0.21 nM
8. CC1(c2ccc(Cl)cc2F)Oc2cccc(C3CCN(Cc4ncc(/C=C/C(=O)O)n4CCN4CCOC4=O)CC3)c2O1 (centres unmarked) [Compound 200, (E)-3-(2-((4-(2-(4-chloro-2-fluorophenyl)-2-methylbenzo[d][1,3]dioxol-4-yl)piperidin-1-yl)methyl)-1-(2-(2-oxooxazolidin-3-yl)ethyl)-1H-imidazol-5-yl)acrylic acid]  0.22 nM
9. CC1(c2ccc(Cl)cc2F)Oc2cccc(C3CCN(Cc4ncc(/C=C/C(=O)O)n4CC4(F)COC4)CC3)c2O1 (centres unmarked) [Compound 157, (E)-3-(2-((4-(2-(4-chloro-2-fluorophenyl)-2-methylbenzo[d][1,3]dioxol-4-yl)piperidin-1-yl)methyl)-1-((3-fluorooxetan-3-yl)methyl)-1H-imidazol-5-yl)acrylic acid]  0.26 nM
10. CC1(c2ccc(Cl)cc2F)Oc2cccc(C3CCN(Cc4ncc(CCC(=O)O)n4C[C@@H]4CCO4)CC3)c2O1 (stereo partly drawn) [Compound 239, 3-(2-((4-(2-(4-chloro-2-fluorophenyl)-2-methylbenzo[d][1,3]dioxol-4-yl)piperidin-1-yl)methyl)-1-(((S)-oxetan-2-yl)methyl)-1H-imidazol-5-yl)propanoic acid]  0.45 nM
11. COCCn1c(/C=C/C(=O)O)nnc1CN1CCC(c2cccc(OCc3ccc(Cl)cc3F)n2)CC1 [Compound 223, (E)-3-(5-((4-(6-((4-chloro-2-fluorobenzyl)oxy)pyridin-2-yl)piperidin-1-yl)methyl)-4-(2-methoxyethyl)-4H-1,2,4-triazol-3-yl)acrylic acid]  0.47 nM
12. C[C@@H](c1ccccc1)n1c(/C=C/C(=O)O)cnc1CN1CCC(c2cccc3c2OC(C)(c2ccc(Cl)cc2F)O3)CC1 (stereo partly drawn) [Compound 152, (E)-3-(2-((4-(2-(4-chloro-2-fluorophenyl)-2-methylbenzo[d][1,3]dioxol-4-yl)piperidin-1-yl)methyl)-1-((S)-1-phenylethyl)-1H-imidazol-5-yl)acrylic acid]  0.53 nM
13. O=C(O)/C=C/c1cnc(CN2CCC(c3cccc4c3OC[C@@H](c3ccc(Cl)cc3)O4)CC2)n1Cc1cccnc1 [Compound 209a, (R,E)-3-(2-((4-(2-(4-chlorophenyl)-2,3-dihydrobenzo[b][1,4]dioxin-5-yl)piperidin-1-yl)methyl)-1-(pyridin-3-ylmethyl)-1H-imidazol-5-yl)acrylic acid]  0.54 nM
14. CC1(c2ccc(Cl)cc2F)Oc2cccc(C3CCN(Cc4ncc(/C=C/C(=O)O)n4C4CC(O)C4)CC3)c2O1 (centres unmarked) [Compound 178, (E)-3-(2-((4-(2-(4-chloro-2-fluorophenyl)-2-methylbenzo[d][1,3]dioxol-4-yl)piperidin-1-yl)methyl)-1-(3-hydroxycyclobutyl)-1H-imidazol-5-yl)acrylic acid]  1.2 nM
15. Cn1c(-c2cc(=O)[nH]o2)cnc1CN1CCC(c2cccc(OCc3ccc(Cl)cc3F)n2)CC1 [Compound 250, 5-(2-((4-(6-((4-chloro-2-fluorobenzyl)oxy)pyridin-2-yl)piperidin-1-yl)methyl)-1-methyl-1H-imidazol-5-yl)isoxazol-3(2H)-one]  1.6 nM
16. C/C(=C\c1nnc(CN2CCC(c3cccc(OCc4ccc(Cl)cc4F)n3)CC2)n1CCS(C)(=O)=O)C(=O)O [Compound 227, (E)-3-(5-((4-(6-((4-chloro-2-fluorobenzyl)oxy)pyridin-2-yl)piperidin-1-yl)methyl)-4-(2-(methylsulfonyl)ethyl)-4H-1,2,4-triazol-3-yl)-2-methylacrylic acid]  1.7 nM
17. Cn1c(/C=C/C(=O)O)cnc1CN1CCC(c2cccc(OCc3ccc(Cl)cc3F)n2)CC1 [Compound 104, (E)-3-(2-((4-(6-((4-chloro-2-fluorobenzyl)oxy)pyridin-2-yl)piperidin-1-yl)methyl)-1-methyl-1H-imidazol-5-yl)acrylic acid]  3.45 nM
18. O=C(O)/C=C/c1cnc(CN2CCC(c3cccc(OCc4ccc(Cl)cc4F)n3)CC2)n1CC1CCCO1 (centres unmarked) [Compound 213, (E)-3-(2-((4-(6-((4-chloro-2-fluorobenzyl)oxy)pyridin-2-yl)piperidin-1-yl)methyl)-1-((tetrahydrofuran-2-yl)methyl)-1H-imidazol-5-yl)acrylic acid]  4.2 nM
19. CC1(c2ccc(Cl)cc2F)Oc2cccc(C3CCN(Cc4ncc(-c5nnc(C(F)(F)F)[nH]5)cc4CCS(C)(=O)=O)CC3)c2O1 (centres unmarked) [Compound 267, 2-({4-[2-(4-chloro-2-fluorophenyl)-2-methyl-2H-1,3-benzodioxol-4-yl]piperidin-1-yl}methyl)-3-(2-methanesulfonylethyl)-5-[5-(trifluoromethyl)-4H-1,2,4-triazol-3-yl]pyridine]  4.7 nM
20. C/C(=C\c1cnc(CN2CCC(c3cccc(OCc4ccc(Cl)cc4F)n3)CC2)n1C)C(=O)O [Compound 110, (E)-3-(2-((4-(6-((4-chloro-2-fluorobenzyl)oxy)pyridin-2-yl)piperidin-1-yl)methyl)-1-methyl-1H-imidazol-5-yl)-2-methylacrylic acid]  5.5 nM
21. CS(=O)(=O)CCn1c(/C=C/C(=O)O)cnc1CN1CCC(c2cccc(OCc3ccc(Cl)cc3F)n2)CC1 [Compound 212, (E)-3-(2-((4-(6-((4-chloro-2-fluorobenzyl)oxy)pyridin-2-yl)piperidin-1-yl)methyl)-1-(2-(methylsulfonyl)ethyl)-1H-imidazol-5-yl)acrylic acid]  6.4 nM
22. CC1(c2ccc(Cl)cc2F)Oc2cccc(C3CCN(Cc4ncc(-c5nnc(C(F)(F)F)[nH]5)cc4CC4CCCS4(=O)=O)CC3)c2O1 (centres unmarked) [Compound 266, 2-{[2-({4-[2-(4-chloro-2-fluorophenyl)-2-methyl-2H-1,3-benzodioxol-4-yl]piperidin-1-yl}methyl)-5-[5-(trifluoromethyl)-4H-1,2,4-triazol-3-yl]pyridin-3-yl]methyl}-1λ^6-thiolane-1,1-dione]  10 nM
23. Cc1cc(-c2nnc(C(F)(F)F)[nH]2)cnc1CN1CCC(c2cccc3c2OC(C)(c2ccc(Cl)cn2)O3)CC1 (centres unmarked) [Compound 264, 2-({4-[2-(5-chloropyridin-2-yl)-2-methyl-2H-1,3-benzodioxol-4-yl]piperidin-1-yl}methyl)-3-methyl-5-[5-(trifluoromethyl)-4H-1,2,4-triazol-3-yl]pyridine]  15 nM
24. Cn1c(C2CC2C(=O)O)cnc1CN1CCC(c2cccc(OCc3ccc(Cl)cc3F)n2)CC1 (centres unmarked) [Compound 108, 2-(2-((4-(6-((4-chloro-2-fluorobenzyl)oxy)pyridin-2-yl)piperidin-1-yl)methyl)-1-methyl-1H-imidazol-5-yl)cyclopropanecarboxylic acid]  28.2 nM
25. O=C(O)/C(F)=C/c1cnc(CN2CCC(c3cccc(OCc4ccc(Cl)cc4F)n3)CC2)n1C[C@@H]1CCO1 [Compound 215a, (S,Z)-3-(2-((4-(6-((4-chloro-2-fluorobenzyl)oxy)pyridin-2-yl)piperidin-1-yl)methyl)-1-(oxetan-2-ylmethyl)-1H-imidazol-5-yl)-2-fluoroacrylic acid]  55 nM
26. Cc1cc(C(=O)O)cnc1CN1CCC(c2cccc(OCc3ccc(Cl)cc3F)n2)CC1 [Compound 129, 6-((4-(6-((4-chloro-2-fluorobenzyl)oxy)pyridin-2-yl)piperidin-1-yl)methyl)-5-methylnicotinic acid]  1500 nM
